Three compounds from ChEMBL document CHEMBL1150485, “Rapid synthesis and properties of ()-6-Deoxy-6-fluoro-myo-inositol-1,4,5-tris(phosphate) an analogue of myo-inositol-1,4,5-tris(phosphate)” (Bioorg Med Chem Lett, 1996) can be followed below.

This assay is filed under the species Bos taurus. Description: Binding affinity on adrenal cortex microsomes. The assay is classed as functional.

By Kd is commonly meant the free concentration of one partner at which half of the binding sites on the other are occupied at equilibrium, for simple one-to-one binding. A higher Kd goes with weaker binding. For `O=P(O)(O)O[C@@H]1[C@H](O)[C@H](O)[C@@H](OP(=O)(O)O)[C@H](OP(=O)(O)O)[C@H]1F`, the affinity, expressed as Kd, was 1600 nM.

In the case of `O=P(O)(O)O[C@@H]1CC[C@@H](OP(=O)(O)O)[C@H](OP(=O)(O)O)C1`, the equilibrium dissociation constant (Kd) came to 4000 nM. The compound `O=P(O)(O)O[C@@H]1[C@H](O)[C@H](O)[C@@H](OP(=O)(O)O)[C@H](OP(=O)(O)O)[C@H]1O` [INS(1,4,5)P3] showed an equilibrium dissociation constant (Kd) of 10 nM.
